Tests used:
Test in all cases: relative viability (nuclei count vs DMSO), 5 days (fraction); higher = more cells survive
[1] = compound: O=C(C[C@H]1NCCC[C@@H]1O)Cn1cnc2cc(Br)c(Cl)cc2c1=O (racemic) [Halofuginone] + CCNC(=O)c1noc(-c2cc(C(C)C)c(O)cc2O)c1-c1ccc(CN2CCOCC2)cc1 [Luminespib] (partner 0.01 µM)
Outline: (§1)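 Five library-drug doses in √10 steps were combined with a fixed anchor-drug dose, or a single drug was given alone, by pin tool to lung cancer cell lines in 1536-well plates the day after seeding. Nuclei were stained and counted after 5 days. Relative viability is the nuclei count in treated wells over that in vehicle wells, taken as the median of duplicate plates.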

Cediranib + OSI-027 = compound: COc1cc2c(Oc3ccc4[nH]c(C)cc4c3F)ncnc2cc1OCCCN1CCCC1 [Cediranib] + COc1cccc2cc(-c3nc([C@H]4CC[C@H](C(=O)O)CC4)n4ncnc(N)c34)[nH]c12 [OSI-027] (partner 0.5 µM)
Outline: as §1

Halofuginone + OSI-027 = compound: O=C(C[C@H]1NCCC[C@@H]1O)Cn1cnc2cc(Br)c(Cl)cc2c1=O (racemic) [Halofuginone] + COc1cccc2cc(-c3nc([C@H]4CC[C@H](C(=O)O)CC4)n4ncnc(N)c34)[nH]c12 [OSI-027] (partner 0.5 µM)
Outline: as §1

Decitabine + OSI-027 = compound: Nc1ncn([C@H]2C[C@H](O)[C@@H](CO)O2)c(=O)n1 [Decitabine] + COc1cccc2cc(-c3nc([C@H]4CC[C@H](C(=O)O)CC4)n4ncnc(N)c34)[nH]c12 [OSI-027] (partner 0.5 µM)
Outline: as §1

| Cell Line | relative viability ([1]; first compound 0.001 µM) | relative viability ([1]; first compound 0.003162 µM) | relative viability ([1]; first compound 0.01 µM) | relative viability ([1]; first compound 0.03162 µM) | relative viability ([1]; first compound 0.1 µM) | relative viability (Cediranib + OSI-027; first compound 0.04 µM) | relative viability (Cediranib + OSI-027; first compound 0.1265 µM) | relative viability (Cediranib + OSI-027; first compound 0.4 µM) | relative viability (Cediranib + OSI-027; first compound 1.265 µM) | relative viability (Cediranib + OSI-027; first compound 4 µM) | relative viability (Halofuginone + OSI-027; first compound 0.001 µM) | relative viability (Halofuginone + OSI-027; first compound 0.003162 µM) | relative viability (Halofuginone + OSI-027; first compound 0.01 µM) | relative viability (Halofuginone + OSI-027; first compound 0.03162 µM) | relative viability (Halofuginone + OSI-027; first compound 0.1 µM) | relative viability (Decitabine + OSI-027; first compound 0.04 µM) | relative viability (Decitabine + OSI-027; first compound 0.1265 µM) | relative viability (Decitabine + OSI-027; first compound 0.4 µM) | relative viability (Decitabine + OSI-027; first compound 1.265 µM) | relative viability (Decitabine + OSI-027; first compound 4 µM) |
| --- | --- | --- | --- | --- | --- | --- | --- | --- | --- | --- | --- | --- | --- | --- | --- | --- | --- | --- | --- | --- |
| NCI-H1755 | 0.469 | 0.41 | 0.392 | 0.565 | 0.445 | 0.601 | 0.565 | 0.689 | 0.694 | 0.81 | 0.76 | 0.788 | 0.677 | 0.753 | 0.627 | 0.642 | 0.669 | 0.534 | 0.571 | 0.52 |
| NCI-H1792 | 0.498 | 0.402 | 0.414 | 0.452 | 0.296 | 0.731 | 0.732 | 0.661 | 0.76 | 0.757 | 0.71 | 0.749 | 0.801 | 0.737 | 0.592 | 0.74 | 0.727 | 0.712 | 0.539 | 0.505 |
| NCI-H1793 | 0.181 | 0.191 | 0.172 | 0.211 | 0.161 | 0.271 | 0.276 | 0.245 |  | 0.301 | 0.299 | 0.253 | 0.297 | 0.288 | 0.196 | 0.204 | 0.277 | 0.289 | 0.277 | 0.233 |
| NCI-H1915 | 0.787 | 0.826 | 0.794 | 0.719 | 0.55 | 0.559 | 0.516 | 0.566 | 0.624 | 0.669 | 0.616 | 0.62 | 0.643 | 0.549 | 0.544 | 0.447 | 0.429 | 0.29 | 0.312 | 0.263 |
| NCI-H1944 | 0.647 | 0.7 | 0.763 | 0.735 | 0.313 | 0.382 | 0.513 | 0.422 | 0.39 | 0.429 | 0.422 | 0.431 | 0.447 | 0.404 | 0.343 | 0.372 | 0.424 | 0.353 | 0.329 | 0.354 |
| NCI-H1975 | 0.24 | 0.215 | 0.272 | 0.241 | 0.183 | 0.691 | 0.773 | 0.686 | 0.638 | 0.801 | 0.751 | 0.744 | 0.67 | 0.473 | 0.348 | 0.516 | 0.378 | 0.32 | 0.277 | 0.256 |
| NCI-H1993 | 1 | 1.05 | 0.699 | 0.863 | 0.682 | 0.421 | 0.579 | 0.548 | 0.506 | 0.545 | 0.56 | 0.592 | 0.564 | 0.47 | 0.523 | 0.593 | 0.599 | 0.519 | 0.514 | 0.548 |
| NCI-H2009 | 1.07 | 1.04 | 1.03 | 0.904 | 0.692 | 0.548 | 0.538 | 0.658 | 0.518 | 0.639 | 0.835 | 0.795 | 0.655 | 0.468 | 0.264 | 0.518 | 0.437 | 0.336 | 0.296 | 0.25 |
| NCI-H2023 | 0.849 | 0.699 | 0.529 | 0.148 | 0.0557 | 0.342 | 0.402 | 0.374 | 0.385 | 0.415 | 0.488 | 0.421 | 0.36 | 0.3 | 0.0722 | 0.275 | 0.29 | 0.26 | 0.159 | 0.15 |
| NCI-H2085 | 0.41 | 0.5 | 0.48 | 0.489 | 0.377 | 0.801 | 0.786 | 0.759 | 0.48 | 0.856 | 0.886 | 0.832 | 0.755 | 0.721 | 0.523 | 0.47 | 0.587 | 0.472 | 0.376 | 0.365 |
| NCI-H2087 | 0.179 | 0.152 | 0.178 | 0.174 | 0.134 | 0.558 | 0.742 | 0.526 | 0.425 | 0.763 | 0.439 | 0.593 | 0.528 | 0.484 | 0.424 | 0.376 | 0.348 | 0.317 | 0.257 | 0.28 |
| NCI-H2126 | 0.901 | 0.92 | 0.928 | 0.914 | 0.675 | 0.649 | 0.577 | 0.668 | 0.597 | 0.537 | 0.727 | 0.604 | 0.695 | 0.612 | 0.549 | 0.659 | 0.67 | 0.489 | 0.465 | 0.44 |
| NCI-H2170 | 0.681 | 0.631 | 0.557 | 0.758 | 0.603 | 0.619 | 0.529 | 0.691 | 0.611 | 0.786 | 0.699 | 0.714 | 0.738 | 0.651 | 0.659 | 0.626 | 0.55 | 0.454 | 0.44 | 0.385 |
| NCI-H2228 | 0.136 | 0.139 | 0.12 | 0.118 | 0.126 | 0.552 | 0.767 | 0.496 | 0.335 | 0.68 | 0.741 | 0.647 | 0.465 | 0.371 | 0.198 | 0.418 | 0.431 | 0.205 | 0.103 | 0.207 |
| NCI-H2342 | 0.817 | 0.719 | 0.699 | 0.731 | 0.64 | 0.615 | 0.671 | 0.659 | 0.549 | 0.508 | 0.565 | 0.622 | 0.574 | 0.7 | 0.618 | 0.544 | 0.583 | 0.565 | 0.595 | 0.599 |
| NCI-H2347 | 0.513 | 0.321 | 0.483 | 0.511 | 0.598 | 0.376 | 0.448 | 0.371 | 0.407 | 0.425 | 0.577 | 0.336 | 0.454 | 0.425 | 0.344 | 0.382 | 0.478 | 0.34 | 0.402 | 0.383 |

From the supplement of paper PMC10307832
